Measured values reported in patent US12187684B2, “Benzimidazole derivatives as modulators of retinoid-related orphan receptor gamma (RORγ) and pharmaceutical use thereof” (Jiangsu Hengrui Medicine Co., Ltd., priority 2018, dated 2025).

The compounds below were run against T1, RORγ LBD-GST tagged (Homo sapiens, UniProt P51449) (assay: LanthaScreen TR-FRET RORγ coactivator assay). Conditions: Fluorescein-D22 coactivator peptide, 1 hour room temperature.
T1 construct: RORγ LBD-GST tagged (Cat No. RORC-114H, Creative Biomart); purchased Creative Biomart RORC-114H
T1 sequence (P51449 269-508 limits assumed): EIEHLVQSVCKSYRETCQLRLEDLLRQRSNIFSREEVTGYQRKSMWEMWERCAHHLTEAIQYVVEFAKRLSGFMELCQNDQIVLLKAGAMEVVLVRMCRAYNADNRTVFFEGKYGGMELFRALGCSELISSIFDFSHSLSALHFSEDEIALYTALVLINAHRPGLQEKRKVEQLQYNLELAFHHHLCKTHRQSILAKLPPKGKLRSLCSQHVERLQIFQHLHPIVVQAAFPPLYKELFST
Format: biochemical
Source text: LanthaScreen TR-FRET Retinoid-Related Orphan Receptor Gamma (RORγ) Coactivator Assay Materials and Reagents • 1. […] Fluorescein-D22 coactivator peptide (Cat No. PV4386, Invitrogen) • 3. LanthaScreen™ Tb anti-GST antibody (Cat No. PV3550, Invitrogen) • 4. TR-FRET coregulatory buffer D (Cat No, PV4420, Invitrogen) • 5. DTT (Cat No. P2325, Fisher) • 6. […] Tecan Infinite M1000 plate reader (Tecan) Experimental Procedure Prepare Complete TR-FRET Coregulator Buffer D by adding 1 M DTT to TR-FRET Coregulator Buffer D to the final concentration of 5 mM DTT. Make compound dilution in Complete TR-FRET Coregulator Buffer D. Highest dose is 3 μM, 7-folder dilution for total 7 doses. Add 10 μL to each well of a 384-well plate. For the negative and positive controls, add 10 μL of Complete TR-FRET Coregulator Buffer D. Prepare RORγ LBD using Complete TR-FRET Coregulator Buffer D. The final concentration of RORγ LBD is 25 ng/reaction. Add 5 μL RORγ LBD to all the wells of the 384-well assay plate except negative wells which adding 5 μL Complete TR-FRET Coregulator Buffer D. Prepare a solution containing 0.6 μM Fluorescein-D22 and 8 nM Tb anti-GST antibody using Complete TR-FRET Coregulator Buffer D. Add 5 μL to all wells of the 384-well assay plate. Briefly and gently mix the 384-well plate on a plate shaker and incubate at room temperature protected from light for 1 hour. The plate may be sealed with a cover to minimize evaporation. Read the plate at wavelengths of 520 nm and 495 nm on Tecan Infinite M1000. IC50 values were calculated using GraphPad Prism by plotting the logarithm of compounds concentration versus percent inhibition.
For CCS(=O)(=O)c1ccc(Cc2nc3c(Cl)c(-c4ccsc4)c(Cl)cc3[nH]2)cc1 [Example 24, 4,6-dichloro-2-(4-(ethylsulfonyl)benzyl)-5-(thiophen-3-yl)-1H-benzo[d]imidazole], the IC50 was 0.701 µM.
In the case of O=S(=O)(CC1CC1)c1ccc(C(O)c2nc3c(Cl)c(-c4ccccc4OC(F)(F)F)c(Cl)cc3[nH]2)c(F)c1 (stereo not shown) [Example 82, (4-((cyclopropylmethyl)sulfonyl)-2-fluorophenyl)(4,6-dichloro-5-(2-(trifluoromethoxy)phenyl)-1H-benzo[d]imidazol-2-yl)methanol], the IC50 is reported as 0.046 µM.
Compound CS(=O)(=O)c1ccc(Cc2nc3c(Cl)c(-c4ccccc4OC(F)F)c(Cl)cc3[nH]2)cc1 [Example 47, 4,6-dichloro-5-(2-(difluoromethoxy)phenyl)-2-(4-(methylsulfonyl)benzyl)-1H-benzo[d]imidazole] has an IC50 of 0.196 µM.
CCS(=O)(=O)c1ccc(Cc2nc3c(F)c(-c4ccccc4C(F)(F)F)c(F)cc3[nH]2)cc1 [Example 111, 2-(4-(ethylsulfonyl)benzyl)-4,6-difluoro-5-(2-(trifluoromethyl)phenyl)-1H-benzo[d]imidazole] was tested, and the IC50 was 0.06 µM.
Compound CCS(=O)(=O)c1ccc(C(O)c2nc3c(Cl)c(-c4ccccc4OC(C)C)c(Cl)cc3[nH]2)cc1 (stereo not shown) [Example 10, (4,6-dichloro-5-(2-isopropoxyphenyl)-1H-benzo[d]imidazol-2-yl)(4-(ethylsulfonyl)phenyl)methanol] has an IC50 of 0.056 µM.
CCS(=O)(=O)c1ccc(C(CO)c2nc3cc(-c4ccccc4OC(F)(F)F)c(F)cc3[nH]2)cc1 (stereo not shown) [Example 120, 2-(4-(ethylsulfonyl)phenyl)-2-(6-fluoro-5-(2-(trifluoromethoxy)phenyl)-1H-benzo[d]imidazol-2-yl)ethanol] was tested, and the IC50 was 0.321 µM.
With CCS(=O)(=O)c1ccc(C(O)c2nc3c(C)c(-c4ccccc4OC)c(C)cc3[nH]2)cc1 (stereo not shown) [Example 118, (4-(ethylsulfonyl)phenyl)(5-(2-methoxyphenyl)-4,6-dimethyl-1H-benzo[d]imidazol-2-yl)methanol] the IC50 was 0.306 µM.
In the case of CCS(=O)(=O)c1ccc(C(O)c2nc3c(Cl)c(-c4ccccc4OC(F)(F)F)c(Cl)cc3[nH]2)c(Cl)c1 (stereo not shown) [Example 88, (2-chloro-4-(ethylsulfonyl)phenyl)(4,6-dichloro-5-(2-(trifluoromethoxy)phenyl)-1H-benzo[d]imidazol-2-yl)methanol], the IC50 is reported as 0.162 µM.
Work on COCCS(=O)(=O)c1ccc(C(CO)c2nc3c(Cl)c(-c4ccccc4OC(F)(F)F)c(Cl)cc3[nH]2)cc1 (stereo not shown) [Example 54, 2-(4,6-dichloro-5-(2-(trifluoromethoxy)phenyl)-1H-benzo[d]imidazol-2-yl)-2-(4-((2-methoxyethyl)sulfonyl)phenyl)ethanol] yielded an IC50 of 0.367 µM.
Work on CCS(=O)(=O)c1ccc(C(CO)c2nc3c(Cl)c(-c4ccccc4C#N)c(Cl)cc3[nH]2)cc1 (stereo not shown) [Example 22, 2-(4,6-dichloro-2-(1-(4-(ethylsulfonyl)phenyl)-2-hydroxyethyl)-1H-benzo[d]imidazol-5-yl)benzonitrile] yielded an IC50 of 0.219 µM.
In the case of CS(=O)(=O)c1ccc(Cc2nc3c(Cl)c(-c4ccccc4OC(F)(F)F)c(Cl)cc3[nH]2)c(Cl)c1 [Example 101, 4,6-dichloro-2-(2-chloro-4-(methylsulfonyl)benzyl)-5-(2-(trifluoromethoxy)phenyl)-1H-benzo[d]imidazole], the IC50 is reported as 0.082 µM.
For CS(=O)(=O)c1ccc(Cc2nc3c(Cl)c(-c4ccccc4C(F)(F)F)c(Cl)cc3[nH]2)cc1 [Example 45, 4,6-dichloro-2-(4-(methylsulfonyl)benzyl)-5-(2-(trifluoromethyl)phenyl)-1H-benzo[d]imidazole], the IC50 was 0.535 µM.
O=S(=O)(CC(F)(F)F)c1ccc(Cc2nc3c(Cl)c(-c4ccccc4OC(F)(F)F)c(Cl)cc3[nH]2)cc1 [Example 59, 4,6-dichloro-2-(4-((2,2,2-trifluoroethyl)sulfonyl)benzyl)-5-(2-(trifluoromethoxy)phenyl)-1H-benzo[d]imidazole] was tested, and the IC50 was 0.433 µM.
Work on CCS(=O)(=O)c1ccc(C(CO)c2nc3c(F)c(-c4ccccc4)c(F)cc3[nH]2)cc1 (stereo not shown) [Example 114, 2-(4,6-difluoro-5-phenyl-1H-benzo[d]imidazol-2-yl)-2-(4-(ethylsulfonyl)phenyl)ethanol] yielded an IC50 of 0.564 µM.
CCS(=O)(=O)c1ccc(C(NC(=O)COC)c2nc3c(Cl)c(-c4ccccc4OC(F)F)c(Cl)cc3[nH]2)cc1 (stereo not shown) [Example 41, N-((4,6-dichloro-5-(2-(difluoromethoxy)phenyl)-1H-benzo[d]imidazol-2-yl)(4-(ethylsulfonyl)phenyl)methyl)-2-methoxyacetamide] gave an IC50 of 0.683 µM.
In the case of CCS(=O)(=O)c1ccc(C(CO)c2nc3c(C)c(-c4ccccc4OC)c(C)cc3[nH]2)cc1 (stereo not shown) [Example 117, 2-(4-(ethylsulfonyl)phenyl)-2-(5-(2-methoxyphenyl)-4,6-dimethyl-1H-benzo[d]imidazol-2-yl)ethanol], the IC50 is reported as 0.149 µM.
Work on CS(=O)(=O)c1ccc(C(O)c2nc3c(Cl)c(-c4ccccc4OC(F)(F)F)c(Cl)cc3[nH]2)c(Cl)c1 (stereo not shown) [Example 103, (2-chloro-4-(methylsulfonyl)phenyl)(4,6-dichloro-5-(2-(trifluoromethoxy)phenyl)-1H-benzo[d]imidazol-2-yl)methanol] yielded an IC50 of 0.158 µM.
In the case of O=S(=O)(CC1CC1)c1ccc(C(CO)c2nc3c(Cl)c(-c4ccccc4OC(F)(F)F)c(Cl)cc3[nH]2)c(Cl)c1 (stereo not shown) [Example 91, 2-(2-chloro-4-((cyclopropylmethyl)sulfonyl)phenyl)-2-(4,6-dichloro-5-(2-(trifluoromethoxy)phenyl)-1H-benzo[d]imidazol-2-yl)ethanol], the IC50 is reported as 0.14 µM.
CC(C)S(=O)(=O)c1ccc(Cc2nc3c(Cl)c(-c4ccccc4OC(F)(F)F)c(Cl)cc3[nH]2)cc1 [Example 104] showed an IC50 of 0.337 µM.
O=S(=O)(CC1CC1)c1ccc(C(O)c2nc3c(Cl)c(-c4ccccc4Cl)c(Cl)cc3[nH]2)cc1 (stereo not shown) [Example 94, (4-((cyclopropylmethyl)sulfonyl)phenyl)(4,6-dichloro-5-(2-chlorophenyl)-1H-benzo[d]imidazol-2-yl)methanol] gave an IC50 of 0.023 µM.
Work on CCS(=O)(=O)c1ccc(C(N)c2nc3c(Cl)c(-c4ccccc4OC(F)(F)F)c(Cl)cc3[nH]2)cc1 (stereo not shown) [Example 43, (4,6-dichloro-5-(2-(trifluoromethoxy)phenyl)-1H-benzo[d]imidazol-2-yl)(4-(ethylsulfonyl)phenyl)methanamine] yielded an IC50 of 0.656 µM.
For O=S(=O)(NC1CC1)c1ccc(Cc2nc3c(Cl)c(-c4ccccc4OC(F)(F)F)c(Cl)cc3[nH]2)cc1 [Example 122, N-cyclopropyl-4-((4,6-dichloro-5-(2-(trifluoromethoxy)phenyl)-1H-benzo[d]imidazol-2-yl)methyl)benzenesulfonamide], the IC50 was 0.049 µM.
With CCS(=O)(=O)c1ccc(C(O)c2nc3c(Cl)c(-c4ccsc4)c(Cl)cc3[nH]2)cc1 (stereo not shown) [Example 26, (4,6-dichloro-5-(thiophen-3-yl)-1H-benzo[d]imidazol-2-yl)(4-(ethylsulfonyl)phenyl)methanol] the IC50 was 0.465 µM.
O=S(=O)(CC1CC1)c1ccc(C(CO)c2nc3c(Cl)c(-c4ccccc4F)c(Cl)cc3[nH]2)cc1 (stereo not shown) [Example 74, 2-(4-((cyclopropylmethyl)sulfonyl)phenyl)-2-(4,6-dichloro-5-(2-fluorophenyl)-1H-benzo[d]imidazol-2-yl)ethanol] gave an IC50 of 0.187 µM.
CCS(=O)(=O)c1ccc(Cc2nc3c(Cl)c(-c4ccccc4C(C)C)c(Cl)cc3[nH]2)cc1 [Example 36, 4,6-dichloro-2-(4-(ethylsulfonyl)benzyl)-5-(2-isopropylphenyl)-1H-benzol[d]imidazole] gave an IC50 of 0.348 µM.
For O=S(=O)(CC1CC1)c1ccc(C(CCO)c2nc3cc(-c4ccccc4OC(F)F)c(Cl)cc3[nH]2)cc1 (single isomer, unassigned) [3-(6-chloro-5-(2-(difluoromethoxy)phenyl)-1H-benzo[d]imidazol-2-yl)-3-(4-((cyclopropylmethyl)sulfonyl)phenyl)propan-1-ol], the IC50 was 0.081 µM.
Compound CCS(=O)(=O)c1ccc(Cc2nc3c(Cl)c(-c4ccccc4N(C)C)c(Cl)cc3[nH]2)cc1 [Example 27, 2-(4,6-dichloro-2-(4-(ethylsulfonyl)benzyl)-1H-benzo[d]imidazol-5-yl)-N,N-dimethylaniline] has an IC50 of 0.489 µM.
CCS(=O)(=O)c1ccc(C(NC(=O)c2c(C)noc2C)c2nc3c(Cl)c(-c4ccccc4OC(F)F)c(Cl)cc3[nH]2)cc1 (stereo not shown) [Example 42, N-((4,6-dichloro-5-(2-(difluoromethoxy)phenyl)-1H-benzo[d]imidazol-2-yl)(4-(ethylsulfonyl)phenyl)methyl)-3,5-dimethylisoxazole-4-carboxamide] showed an IC50 of 0.113 µM.
